Experimental data from ChEMBL document CHEMBL3352628, “Stereochemical modification of geminal dialkyl substituents on pantothenamides alters antimicrobial activity” (Bioorg Med Chem Lett, 2014).
Converted amounts (≈) assume the structure as drawn. The source made the active and inactive calls. The rule behind the calls is not given here.

Experiments:
Staphylococcus aureus [1] = assay: Antimicrobial activity against oxacillin-susceptible Staphylococcus aureus ATCC 29213 at 500 uM after 18 hrs by microdilution broth method; assay type: functional, organism-based
Staphylococcus aureus [2] = assay: Antimicrobial activity against oxacillin-resistant Staphylococcus aureus 43300 at 500 uM after 18 hrs by microdilution broth method; assay type: functional, organism-based
Plasmodium falciparum [3] = assay: Antimicrobial activity against chloroquine-sensitive Plasmodium falciparum 3D7 ring stage parasite assessed as reduction in parasite proliferation after 96 hrs in presence of 1 uM pantothenate by SYBR Safe DNA gel staining based assay; assay type: functional, organism-based; details: 3D7, 96 h
Plasmodium falciparum [4] = assay: Antimicrobial activity against chloroquine-sensitive Plasmodium falciparum 3D7 ring stage parasite assessed as reduction in parasite proliferation after 96 hrs in presence of 50 uM pantothenate by SYBR Safe DNA gel staining based assay; assay type: functional, organism-based; details: 3D7, 96 h
HFF = assay: Cytotoxicity against HFF cells at 1 to 100 uM after 48 hrs by SYBR Safe DNA gel staining based assay; assay type: cell-based; details: human
Staphylococcus aureus [5] = assay: Antimicrobial activity against oxacillin-susceptible Staphylococcus aureus ATCC 29213 after 18 hrs by microdilution broth method; assay type: functional; details: ATCC 29213, 18 h
Staphylococcus aureus [6] = assay: Antimicrobial activity against oxacillin-resistant Staphylococcus aureus 43300 after 18 hrs by microdilution broth method; assay type: functional; details: Staphylococcus aureus, 43300, 18 h

Row | SMILES | Activity (Staphylococcus aureus [1]) | Activity (Staphylococcus aureus [2]) | IC50 (Plasmodium falciparum [3]) [µM] | IC50 (Plasmodium falciparum [4]) [µM] | Activity (HFF) | MIC (Staphylococcus aureus [5]) [µM] | MIC (Staphylococcus aureus [6]) [µM]
1 | C=CC[C@@](C)(CO)[C@@H](O)C(=O)NCCC(=O)NCCCCC | inactive | inactive | 2.4 | 13 | Non-toxic | 3.2 (≈ 1.01 µg/mL) | 3.2 (≈ 1.01 µg/mL)
2 | C=CC[C@](C)(CO)[C@@H](O)C(=O)NCCC(=O)NCCCCC | – | – | 31 | – | Non-toxic | – | –
